Measured values as given in the CheMixHub viscosity set.
± gives the uncertainty stated by the source.

Assay: xn = mol fraction of the nth substance listed

CCCCNCCCC + CO
viscosity [mPa·s], 101 kPa
Details	x2 = 0.0931	x2 = 0.1959	x2 = 0.2948	x2 = 0.3963	x2 = 0.4955	x2 = 0.6075	x2 = 0.7011	x2 = 0.7979	x2 = 0.9185
303.15 K	0.745 ± 0.004	0.725 ± 0.004	0.706 ± 0.004	0.689 ± 0.004	0.663 ± 0.004	0.639 ± 0.004	0.609 ± 0.004	0.579 ± 0.003	0.548 ± 0.003
313.15 K	0.643 ± 0.004	0.626 ± 0.004	0.61 ± 0.004	0.595 ± 0.004	0.569 ± 0.003	0.549 ± 0.003	0.525 ± 0.003	0.501 ± 0.003	0.476 ± 0.003
323.15 K	0.543 ± 0.003	0.528 ± 0.003	0.513 ± 0.003	0.498 ± 0.003	0.483 ± 0.003	0.467 ± 0.003	0.452 ± 0.003	0.435 ± 0.003	0.413 ± 0.002

COCCO + CO
viscosity [mPa·s]
Details	298.15 K	308.15 K	318.15 K
101 kPa, x1 = 0.04469	0.6045 ± 0.061	0.5088 ± 0.051	0.4575 ± 0.046
101 kPa, x1 = 0.09523	0.6714 ± 0.067	0.536 ± 0.054	0.469 ± 0.047
101 kPa, x1 = 0.1529	0.7467 ± 0.075	–	0.4955 ± 0.05
101 kPa, x1 = 0.2192	0.8508 ± 0.085	0.6249 ± 0.063	0.5383 ± 0.054
101 kPa, x1 = 0.2963	0.9698 ± 0.097	0.6991 ± 0.07	0.6017 ± 0.06
101 kPa, x1 = 0.3871	1.085 ± 0.11	0.7594 ± 0.076	0.6484 ± 0.065
101 kPa, x1 = 0.4956	1.19 ± 0.12	0.8407 ± 0.084	0.7649 ± 0.077
101 kPa, x1 = 0.6274	1.299 ± 0.13	0.9321 ± 0.093	0.8436 ± 0.085
101 kPa, x1 = 0.7912	1.419 ± 0.14	1.058 ± 0.11	0.9667 ± 0.097
101.33 kPa, x1 = 0.1175	–	0.569 ± 0.005	–
101.33 kPa, x1 = 0.2098	–	0.64 ± 0.006	–
101.33 kPa, x1 = 0.3143	–	0.717 ± 0.006	–
101.33 kPa, x1 = 0.4866	–	0.844 ± 0.007	–
101.33 kPa, x1 = 0.6126	–	0.93 ± 0.008	–
101.33 kPa, x1 = 0.762	–	1.036 ± 0.009	–
101.33 kPa, x1 = 0.8201	–	1.074 ± 0.009	–
101.33 kPa, x1 = 0.9101	–	1.13 ± 0.01	–

N#C[S-].[Na+] + CO
viscosity [mPa·s], 101.3 kPa
Details	293.15 K	298.15 K	303.15 K	308.15 K	313.15 K	318.15 K	323.15 K
x1 = 0.003649	0.656 ± 0.049	0.608 ± 0.045	0.563 ± 0.042	0.526 ± 0.039	0.491 ± 0.037	0.46 ± 0.034	0.432 ± 0.032
x1 = 0.01456	0.819 ± 0.061	0.753 ± 0.056	0.695 ± 0.052	0.643 ± 0.048	0.597 ± 0.044	0.556 ± 0.041	0.518 ± 0.039
x1 = 0.03159	0.947 ± 0.07	0.871 ± 0.065	0.803 ± 0.059	0.743 ± 0.055	0.689 ± 0.051	0.646 ± 0.048	0.602 ± 0.045
x1 = 0.0463	1.117 ± 0.082	1.027 ± 0.076	0.947 ± 0.07	0.873 ± 0.064	0.811 ± 0.06	0.753 ± 0.056	0.703 ± 0.052
x1 = 0.05341	1.197 ± 0.088	1.101 ± 0.081	1.011 ± 0.075	0.932 ± 0.069	0.861 ± 0.064	0.798 ± 0.059	0.742 ± 0.055
x1 = 0.07204	1.409 ± 0.1	1.286 ± 0.095	1.176 ± 0.086	1.086 ± 0.08	1.011 ± 0.074	0.923 ± 0.068	0.859 ± 0.063
x1 = 0.08868	1.716 ± 0.13	1.552 ± 0.11	1.416 ± 0.1	1.293 ± 0.095	1.186 ± 0.087	1.092 ± 0.08	1.009 ± 0.074
x1 = 0.09954	1.915 ± 0.14	1.711 ± 0.12	1.514 ± 0.11	1.38 ± 0.1	1.261 ± 0.092	1.16 ± 0.085	1.068 ± 0.078
x1 = 0.1138	2.253 ± 0.17	1.996 ± 0.15	1.793 ± 0.13	1.624 ± 0.12	1.477 ± 0.11	1.353 ± 0.099	1.239 ± 0.09
x1 = 0.1229	2.36 ± 0.17	2.109 ± 0.15	1.904 ± 0.14	1.732 ± 0.13	1.565 ± 0.11	1.426 ± 0.1	1.304 ± 0.095
x1 = 0.1415	2.922 ± 0.21	2.58 ± 0.19	2.295 ± 0.17	2.055 ± 0.15	1.854 ± 0.14	1.683 ± 0.12	1.535 ± 0.11

COCCO + COC(=O)OC
298.15 K, 101.33 kPa
Details	viscosity [mPa·s]
x1 = 0.0114	0.593 ± 0.008
x1 = 0.0258	0.594 ± 0.008
x1 = 0.0442	0.598 ± 0.008
x1 = 0.0637	0.6 ± 0.008
x1 = 0.0769	0.603 ± 0.008
x1 = 0.0975	0.608 ± 0.008
x1 = 0.1462	0.624 ± 0.008
x1 = 0.2295	0.658 ± 0.008
x1 = 0.2503	0.669 ± 0.008
x1 = 0.2778	0.681 ± 0.008
x1 = 0.3223	0.704 ± 0.008
x1 = 0.34	0.713 ± 0.008
x1 = 0.4034	0.758 ± 0.008
x1 = 0.4719	0.81 ± 0.008
x1 = 0.5173	0.848 ± 0.008
x1 = 0.5482	0.874 ± 0.008
x1 = 0.5889	0.91 ± 0.009
x1 = 0.6404	0.96 ± 0.009
x1 = 0.7382	1.075 ± 0.009
x1 = 0.814	1.12 ± 0.1
x1 = 0.8597	1.252 ± 0.01
x1 = 0.89	1.305 ± 0.01
x1 = 0.9189	1.355 ± 0.01
x1 = 0.9738	1.471 ± 0.011
x2 = 0.0109	1.516 ± 0.011

CCCC(C)O (stereo not drawn) + COC(C)(C)C
viscosity [mPa·s], 100 kPa
Details	x2 = 0.0811	x2 = 0.1599	x2 = 0.24	x2 = 0.3501	x2 = 0.44	x2 = 0.56	x2 = 0.65	x2 = 0.74	x2 = 0.8499	x2 = 0.94
293.15 K	2.815 ± 0.027	1.943 ± 0.024	1.344 ± 0.023	0.97 ± 0.02	0.774 ± 0.021	0.621 ± 0.021	0.546 ± 0.021	0.496 ± 0.021	0.436 ± 0.021	0.39 ± 0.02
298.15 K	2.359 ± 0.026	1.633 ± 0.023	1.134 ± 0.022	0.823 ± 0.021	0.666 ± 0.021	0.546 ± 0.021	0.488 ± 0.021	0.441 ± 0.021	0.39 ± 0.02	0.355 ± 0.021
303.15 K	1.994 ± 0.024	1.378 ± 0.023	0.98 ± 0.02	0.705 ± 0.021	0.574 ± 0.021	0.474 ± 0.021	0.424 ± 0.021	0.39 ± 0.02	0.35 ± 0.02	0.321 ± 0.021
308.15 K	1.682 ± 0.023	1.181 ± 0.022	0.868 ± 0.021	0.617 ± 0.021	0.493 ± 0.021	0.407 ± 0.021	0.37 ± 0.02	0.341 ± 0.021	0.313 ± 0.021	0.292 ± 0.021
313.15 K	1.419 ± 0.023	1.001 ± 0.022	0.728 ± 0.021	0.514 ± 0.021	0.407 ± 0.021	0.337 ± 0.021	0.313 ± 0.021	0.296 ± 0.021	0.275 ± 0.021	0.263 ± 0.021
318.15 K	1.208 ± 0.022	0.849 ± 0.021	0.613 ± 0.021	0.412 ± 0.021	0.326 ± 0.021	0.275 ± 0.021	0.255 ± 0.02	0.243 ± 0.02	0.234 ± 0.02	0.231 ± 0.02
323.15 K	1.032 ± 0.022	0.744 ± 0.021	0.524 ± 0.021	0.345 ± 0.021	0.268 ± 0.021	0.226 ± 0.02	0.211 ± 0.02	0.2 ± 0.02	0.197 ± 0.02	0.2 ± 0.02

CCCC(C)O (stereo not drawn) + COc1ccccc1
viscosity [mPa·s], 101.33 kPa
Details	x2 = 0.1007	x2 = 0.2007	x2 = 0.3001	x2 = 0.4004	x2 = 0.5005	x2 = 0.5991	x2 = 0.6973	x2 = 0.798	x2 = 0.897
303.15 K	2.097 ± 0.028	1.59 ± 0.021	1.279 ± 0.017	1.095 ± 0.014	0.998 ± 0.013	0.951 ± 0.012	0.931 ± 0.012	0.924 ± 0.011	0.919 ± 0.011
313.15 K	1.557 ± 0.021	1.234 ± 0.016	1.025 ± 0.013	0.903 ± 0.012	0.845 ± 0.011	0.823 ± 0.01	0.816 ± 0.01	0.811 ± 0.01	0.801 ± 0.01
323.15 K	1.202 ± 0.016	1.014 ± 0.013	0.887 ± 0.012	0.803 ± 0.01	0.753 ± 0.01	0.725 ± 0.009	0.711 ± 0.009	0.704 ± 0.009	0.697 ± 0.009

CC[N+](CC)(CC)CC.[OH-] + CS(C)=O
viscosity [mPa·s], 100 kPa
Details	298.15 K	303.15 K	308.15 K	313.15 K
x1 = 0.0142	2.08 ± 0.05	1.9 ± 0.04	1.77 ± 0.04	1.67 ± 0.04
x1 = 0.0405	2.24 ± 0.05	2.07 ± 0.04	1.96 ± 0.04	1.88 ± 0.04
x1 = 0.0693	2.45 ± 0.05	2.29 ± 0.05	2.18 ± 0.05	2.09 ± 0.05
x1 = 0.0995	2.65 ± 0.06	2.49 ± 0.05	2.38 ± 0.05	2.29 ± 0.05
x1 = 0.1314	2.89 ± 0.06	2.72 ± 0.06	2.62 ± 0.06	2.52 ± 0.05
x1 = 0.165	3.11 ± 0.07	2.95 ± 0.06	2.84 ± 0.06	2.76 ± 0.06
x1 = 0.1925	3.29 ± 0.07	3.12 ± 0.07	3 ± 0.06	2.92 ± 0.06
x1 = 0.2381	3.57 ± 0.08	3.41 ± 0.07	3.3 ± 0.07	3.24 ± 0.07
x1 = 0.2988	3.9 ± 0.08	3.75 ± 0.08	3.66 ± 0.08	3.58 ± 0.08
x1 = 0.3654	4.23 ± 0.09	4.1 ± 0.09	4 ± 0.08	3.95 ± 0.08
x1 = 0.4134	4.45 ± 0.09	4.34 ± 0.09	4.22 ± 0.09	4.18 ± 0.09
x1 = 0.4647	4.66 ± 0.1	4.56 ± 0.1	4.45 ± 0.09	4.41 ± 0.09
x1 = 0.5486	4.94 ± 0.1	4.85 ± 0.1	4.73 ± 0.1	4.71 ± 0.1
x1 = 0.6421	5.17 ± 0.11	5.08 ± 0.11	4.96 ± 0.1	4.92 ± 0.1
x1 = 0.7106	5.37 ± 0.11	5.17 ± 0.11	5.02 ± 0.11	5 ± 0.11
x1 = 0.7848	5.3 ± 0.11	5.2 ± 0.11	5.03 ± 0.11	4.99 ± 0.11
x1 = 0.8653	5.23 ± 0.11	5.12 ± 0.11	4.96 ± 0.1	4.89 ± 0.1
x1 = 0.9531	5.08 ± 0.11	4.89 ± 0.1	4.67 ± 0.1	4.54 ± 0.1

C[Si](C)(C)O[Si](C)(C)O[Si](C)(C)O[Si](C)(C)O[Si](C)(C)O[Si](C)(C)C + C[Si](C)(C)O[Si](C)(C)O[Si](C)(C)O[Si](C)(C)C
Details	viscosity [mPa·s]
298.15 K, 101 kPa, x1 = 0.413	1.738 ± 0.048
